Laboratory results from patent US10618918B2, “Substituted boronic acids as antimicrobials” (priority 2015, dated 2020).
Like-named read-outs stand apart in the source and are kept apart here.

Experiments:
KP1004 KPC-2 [1] = assay: Biapenem potentiation (MPC@1), strain KP1004 KPC-2; format: cell-based; conditions: for BPM MPC1 KP1004 KPC-2: minimum BLI concentration inhibiting growth with biapenem 1 μg/mL, tested up to 40 μg/mL
Procedure: (§1) Biapenem was present in the test medium at 1 μg/mL. […] Table 3 summarizes the BLI potency of biapenem potentiation (MPC@1) for two strains overexpressing class A (KPC) and class D (OXA-48) carbapenemases. Biapenem MIC for each strain is also shown.

KP1086 OXA-48 = assay: Biapenem potentiation (MPC@1), strain KP1086 OXA-48; format: cell-based; conditions: for BPM MPC1 OXA-48 KP1086: minimum BLI concentration inhibiting growth with biapenem 1 μg/mL, tested up to 40 μg/mL
Procedure: as §1

[2] = target: purified class A, C and D enzymes (β-lactamases) (Enterobacter cloacae, UniProt P05364); assay: biochemical; format: biochemical
[3] = target: purified class A, C and D enzymes (β-lactamases) (Escherichia coli, UniProt Q9L5C7); assay: biochemical; format: biochemical; conditions: purified CTX-M-14; nitrocefin (NCF) as reporter substrate
[4] = target: purified class A, C and D enzymes (β-lactamases) (Klebsiella pneumoniae, UniProt Q6XEC0); assay: biochemical; format: biochemical; conditions: purified OXA-48; nitrocefin (NCF) as reporter substrate
[5] = target: purified class A, C and D enzymes (β-lactamases) (Klebsiella pneumoniae, UniProt Q9F663); assay: biochemical; format: biochemical; conditions: purified KPC-2; nitrocefin (NCF) as reporter substrate
[6] = target: T1, purified class A, C and D enzymes (β-lactamases) (UniProt P0AD64, L31Q/G234S/E235K, species not given); assay: biochemical; format: biochemical
T1 construct: Ki (SHV-12, NCF), uM; other: purified SHV-12; nitrocefin (NCF) as reporter substrate
T1 sequence (P0AD64 1-286 L31Q/G234S/E235K): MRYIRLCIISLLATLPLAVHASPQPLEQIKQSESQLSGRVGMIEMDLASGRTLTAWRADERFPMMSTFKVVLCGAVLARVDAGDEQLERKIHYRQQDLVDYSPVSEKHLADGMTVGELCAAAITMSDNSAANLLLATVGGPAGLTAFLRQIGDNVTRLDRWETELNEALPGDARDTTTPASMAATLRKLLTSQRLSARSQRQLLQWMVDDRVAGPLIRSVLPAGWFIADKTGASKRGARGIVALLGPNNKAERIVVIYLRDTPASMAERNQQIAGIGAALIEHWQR

PAM1032/KPC-2 = assay: Biapenem potentiation MPC64 in PAM1032/KPC-2 (efflux proficient, overexpresses MexAB-OprM); format: cell-based, Pseudomonas aeruginosa
Procedure: (§2) Efflux of BLIs from Pseudomonas aeruginosa by the MexAB-OprM efflux pump was also evaluated. The plasmid expressing the gene encoding KPC-2 was introduced into two strains of P. aeruginosa, PAM1032 and PAM 1154 that overexpressed or lacked MexAB-OprM, respectively. […] Potency of BLIs to potentiate biapenem in these strains was determined.

PAM1154/KPC-2 = assay: Biapenem potentiation MPC64 in PAM1154/KPC-2 (efflux deficient, lacks MexAB-OprM); format: cell-based, Pseudomonas aeruginosa
Procedure: as §2

ECL1002 = assay: Aztreonam potentiation (MPC@4), strain ECL1002; conditions: minimum BLI concentration inhibiting growth with aztreonam 4 μg/mL; tested up to 40 μg/mL
ec308 SHV-5 = assay: Aztreonam potentiation (MPC@4), strain ec308 SHV-5; conditions: minimum BLI concentration inhibiting growth with aztreonam 4 μg/mL; tested up to 40 μg/mL
ec302 TEM-10 = assay: Aztreonam potentiation (MPC@4), strain ec302 TEM-10; conditions: minimum BLI concentration inhibiting growth with aztreonam 4 μg/mL; tested up to 40 μg/mL
KP1004 KPC-2 [7] = assay: Aztreonam potentiation (MPC@4), strain KP1004 KPC-2; conditions: minimum BLI concentration inhibiting growth with aztreonam 4 μg/mL; tested up to 40 μg/mL
EC1010 CMY-6 = assay: Aztreonam potentiation (MPC@4), strain EC1010 CMY-6; conditions: minimum BLI concentration inhibiting growth with aztreonam 4 μg/mL; tested up to 40 μg/mL
KP1010 SHV-12 = assay: Aztreonam potentiation (MPC@4), strain KP1010 SHV-12; conditions: minimum BLI concentration inhibiting growth with aztreonam 4 μg/mL; tested up to 40 μg/mL
KP1009 CTX-M-15 = assay: Aztreonam potentiation (MPC@4), strain KP1009 CTX-M-15; conditions: minimum BLI concentration inhibiting growth with aztreonam 4 μg/mL; tested up to 40 μg/mL
KP1005 CTX-M-14 = assay: Tigemonam potentiation (MPC@4), strain KP1005 CTX-M-14; conditions: minimum BLI concentration inhibiting growth with tigemonam 4 μg/mL; tested up to 40 μg/mL
AB1053 OXA-72 = assay: Meropenem potentiation (MPC@8), strain AB1053 OXA-72; format: cell-based, Acinetobacter baumannii; conditions: minimum BLI concentration inhibiting growth with meropenem 8 μg/mL; tested up to 20 μg/mL
AB1054 OXA-23 = assay: Meropenem potentiation (MPC@8), strain AB1054 OXA-23; format: cell-based, Acinetobacter baumannii; conditions: minimum BLI concentration inhibiting growth with meropenem 8 μg/mL; tested up to 20 μg/mL
[8] = target: T2, purified class A, C and D enzymes (β-lactamases) (Acinetobacter baumannii, UniProt Q9L4P2); assay: biochemical; format: biochemical; conditions: purified OXA-23; nitrocefin (NCF) as reporter substrate
T2 construct: rows headed: Ki (OXA-23, NCF), uM; other: purified OXA-23; nitrocefin (NCF) as reporter substrate

[9] = target: T3, purified class A, C and D enzymes (β-lactamases) (Pseudomonas aeruginosa, UniProt P24735); assay: biochemical; format: biochemical
T3 construct: rows headed: Ki (Pa-AmpC, NCF), uM; other: purified Pa-AmpC; nitrocefin (NCF) as reporter substrate

Row | Compound | BPM MPC1 KP1004 KPC-2 (KP1004 KPC-2 [1]) | BPM MPC1 OXA-48 KP1086 (KP1086 OXA-48) | Ki (CTX-M-14, NCF), uM [3] | Ki (OXA-48, NCF), uM [4] | Ki (KPC-2, NCF), uM [5] | AZT MPC4 ECL1002 (ECL1002) | AZT MPC4 SHV-5 ec308 (ec308 SHV-5) | AZT MPC4 TEM-10 ec302 (ec302 TEM-10) | AZT MPC4 KPC-2 KP1004 (KP1004 KPC-2 [7]) | AZT MPC4 CMY-6 EC1010 (EC1010 CMY-6) | AZT MPC4 SHV-12 KP1010 (KP1010 SHV-12) | AZT MPC4 CTX-M-15 KP1009 (KP1009 CTX-M-15) | TIG MPC4 CTX-M-14 KP1005 (KP1005 CTX-M-14) | other results
1 | O=C(O)c1cccc2c1OB(O)CN2S(=O)(=O)Cc1ccccc1 [Compound 4, 4-(BENZYLSULFONYL)-2-HYDROXY-3,4-DIHYDRO-2H-BENZO[E][1,4,2]OXAZABORININE-8-CARBOXYLIC ACID] | X (X = MPC@1 ≤ 5 μg/mL) | Z (Z = MPC@1 > 20 μg/mL) | X (X = Ki ≤ 0.1 μM) | X (X = Ki ≤ 0.1 μM) | X (X = Ki ≤ 0.1 μM) | Z (Z = MPC@4 > 20 μg/mL) | Z (Z = MPC@4 > 20 μg/mL) | Z (Z = MPC@4 > 20 μg/mL) | Z (Z = MPC@4 > 20 μg/mL) | Z (Z = MPC@4 > 20 μg/mL) | Z (Z = MPC@4 > 20 μg/mL) | Z (Z = MPC@4 > 20 μg/mL) | Z (Z = MPC@4 > 20 μg/mL) | Ki (P99, NCF), uM ([2]; purified P99, nitrocefin (NCF) as reporter substrate): X (X = Ki ≤ 0.1 μM); Ki ([6]; purified SHV-12; nitrocefin (NCF) as reporter substrate; read-out: Ki (SHV-12, NCF)): < 100 nM; PAM1032/KPC-2 Biapenem MPC64 (PAM1032/KPC-2; BLI concentration decreasing biapenem MIC 64-fold, from 32 μg/ml to 0.5 μg/ml, efflux proficient strain): >80; PAM1154/KPC-2 Biapenem MPC64 (PAM1154/KPC-2; BLI concentration decreasing biapenem MIC 64-fold, from 32 μg/ml to 0.5 μg/ml, efflux deficient strain): 5
2 | C[C@@H](O)[C@H]1C(=O)N2C(C(=O)[O-])=C(SC3Cn4cnc[n+]4C3)[C@H](C)[C@H]12 (stereo partly shown) [Biapenem, reference compound] |  |  |  |  |  |  |  |  |  |  |  |  |  | MIC (KP1004 KPC-2 [1]; strain KP1004 KPC-2, biapenem alone): 32 µg/mL; MIC (KP1086 OXA-48; strain KP1086 OXA-48, biapenem alone): 16 µg/mL; MIC (PAM1032/KPC-2; Pseudomonas aeruginosa, P. aeruginosa PAM1032 expressing KPC-2, biapenem alone): 32 µg/mL; MIC (PAM1154/KPC-2; Pseudomonas aeruginosa, P. aeruginosa PAM1154 expressing KPC-2, biapenem alone): 32 µg/mL
3 | O=C([O-])c1c(OC(F)F)ccc2c1O[B-](O)(O)CC2.[Na+].[Na+] [Compound 56, Disodium; 8-(difluoromethoxy)-4,4-dihydroxy-5-oxa-4-boranuidabicyclo[4.4.0]deca-1(6),7,9-triene-7-carboxylate] | X (X = MPC@1 ≤ 5 μg/mL) | X (X = MPC@1 ≤ 5 μg/mL) | X (X = Ki ≤ 0.1 μM) | X (X = Ki ≤ 0.1 μM) | X (X = Ki ≤ 0.1 μM) | X (X = MPC@4 ≤ 5 μg/mL) | X (X = MPC@4 ≤ 5 μg/mL) | X (X = MPC@4 ≤ 5 μg/mL) | X (X = MPC@4 ≤ 5 μg/mL) | X (X = MPC@4 ≤ 5 μg/mL) | X (X = MPC@4 ≤ 5 μg/mL) | X (X = MPC@4 ≤ 5 μg/mL) | X (X = MPC@4 ≤ 5 μg/mL) | MPM MPC8 AB1053 OXA-72 (AB1053 OXA-72): X (X = MPC@1 ≤ 5 μg/mL); MPM MPC8 AB1054 OXA-23 (AB1054 OXA-23): X (X = MPC@1 ≤ 5 μg/mL); Ki [8]: < 100 nM; Ki (P99, NCF), uM [2]: X (key: X = Ki ≤ 0.1 μM; Y = 0.1 μM < Ki ≤ 1 μM; Z = Ki > 1 μM); Ki [9]: < 100 nM; Ki ([6]; read-out: Ki (SHV-12, NCF); purified SHV-12; nitrocefin (NCF) as reporter substrate): < 100 nM
